Measured values reported in PMC7096528, “Crystal structure of pathogenic Staphylococcus aureus lipase complex with the anti-obesity drug orlistat” (Scientific Reports, 2020).

Columns and labels:
[1] = biological target: T1, Staphylococcus aureus lipase (SAL, glycerol ester hydrolase) (Staphylococcus aureus, UniProt A0A0U1MWF9); assay: co-crystal structure at […] Å; IC50 from purified-enzyme p-nitrophenyl butyrate hydrolysis assay; assay type: biochemical
T1 construct: gene lip; mature form containing 394 amino acid residues (recombinant, His-tagged; residues 4–385 determined in the native structure)

[2] = biological target: the molecule itself; assay: SEC; Superdex 200 Increase 10/300 GL, 10 mg/mL SAL injected at 20 °C, 50 mM Tris-HCl pH 7.5, 0.2 M NaCl, 0.5 ml/min, BSA as standard for calibration

T1 sequence (A0A0U1MWF9 entry or part of it): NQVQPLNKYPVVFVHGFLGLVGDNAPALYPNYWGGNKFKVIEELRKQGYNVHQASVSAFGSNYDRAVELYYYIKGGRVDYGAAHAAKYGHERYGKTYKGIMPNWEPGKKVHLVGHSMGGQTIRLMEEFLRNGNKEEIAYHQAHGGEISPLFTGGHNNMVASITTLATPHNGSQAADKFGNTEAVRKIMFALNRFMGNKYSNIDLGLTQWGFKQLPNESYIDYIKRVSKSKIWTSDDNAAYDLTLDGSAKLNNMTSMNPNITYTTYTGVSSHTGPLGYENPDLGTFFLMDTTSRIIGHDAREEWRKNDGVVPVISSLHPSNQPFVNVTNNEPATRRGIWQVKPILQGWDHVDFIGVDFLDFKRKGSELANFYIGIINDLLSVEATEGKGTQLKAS

CCCCCCCCCCC[C@@H](C[C@@H]1OC(=O)[C@H]1CCCCCC)OC(=O)[C@H](CC(C)C)NC=O [orlistat]
IC50 [1]: 2.4 µM

B1: Staphylococcus aureus lipase (SAL), native, mature form (enzyme)
chain: ANQVQPLNKYPVVFVHGFLGLVGDNAPALYPNYWGGNKFKVIEELRKQGYNVHQASVSAFGSNYDRAVELYYYIKGGRVDYGAAHAAKYGHERYGKTYKGIMPNWEPGKKVHLVGHSMGGQTIRLMEEFLRNGNKEEIAYHKAHGGEISPLFTGGHNNMVASITTLATPHNGSQAADKFGNTEAVRKIMFALNRFMGNKYSNIDLGLTQWGFKQLPNESYIDYIKRVSKSKIWTSDDNAAYDLTLDGSAKLNNMTSMNPNITYTTYTGVSSHTGPLGYENPDLGTFFLMATTSRIIGHDAREEWRKNDGVVPVISSLHPSNQPFVNVTNDEPATRRGIWQVKPIIQGWDHVDFIGVDFLDFKRKGAELANFYTGIINDLLRVEATESKGTQLKAS
notes: Staphylococcus aureus lipase (glycerol ester hydrolase), mature form of 394 residues processed from the prepolypeptide of 690 residues; numbers count on: the mature protein; Residues 4-385 are visible in the crystal; The pCold II vector is surmised to add the His tag at the N-terminus; also called SA lipase; glycerol ester hydrolase; source: E. coli, purified (three-step chromatography, …)
stoichiometry N [2]: 2
